The source of these data is patent US11840526B2, “Compounds and method for preparing the same” (BEIJING GRAND JOHAMU PHARMACEUTICAL COMPANY, LTD., priority 2022, dated 2023).

The structures appear in SMILES notation.

A short description of the series: Powder characteristics (Carr index, anti-caking property, fluidity) by intelligent powder comprehensive characteristic tester. It counts as physicochemical. Further details: key to Fluidity: Good: “good” means good solid state and good fluidity, which is favorable for formulation development; Less good: “less good” means average fluidity; Poor: “poor” means poor fluidity, which cannot be used for formulation development; key to Anti-caking property: Good: “good” means substantially no agglomeration or clumping; Less good: “less good” means partial clumping or agglomeration; Poor: “poor” means severe or complete clumping. An excerpt:
The performance of the drug powder is influenced by various factors, among which the fluidity, anti-caking property and the like of the starting material drug (i.e., active pharmaceutical ingredient) play a key role in the formulation design, the quality control, the process design, the industrial production and the like of the drug. In the pharmaceutical field, poor fluidity mainly affects the uniformity of the mixed material, and such mixed material is easy to delaminate and has uneven material content; at the same time, the resulting tablet are easy to delaminate during tableting, resulting in inconsistent content of the tablet pressed at different times, and it is easy to cause a significant difference in tablet weight.
The fluidity, the anti-caking property and the like of compound 1 (i.e., (6E)-6-[(6-chloro-2-methyl-2H-indazol-5-yl)imino]-3-[(1-methyl-1H-1,2,4-triazol-3-yl)methyl]-1-(2,4,5-trifluorobenzyl)-1,3,5-triazinane-2,4-dione with different purities) in the above Comparative Examples 1-2 and Examples 1-12 were measured by an intelligent powder comprehensive characteristic tester (HMKTest LABULK, model: HMKFlow 6393 PT1000).
The Carr index reflects the quality of the fluidity, and a smaller value indicates better fluidity, while a Carr index of more than 23% generally indicates poor fluidity. For anti-caking property, “good” means substantially no agglomeration or clumping, “less good” means partial clumping or agglomeration, and “poor” means severe or complete clumping. For fluidity, “good” means good solid state and good fluidity, which is favorable for formulation development; “less good” means average fluidity; and “poor” means poor fluidity, which cannot be used for formulation development.
Similarly, the fluidity of the fumarate salt solid form of compound 1 prepared in the above Examples 28-29 and Comparative Example 3 was measured.

The mark [1] stands for this setting: solid form of compound 1, smaller value = better fluidity, more than 23% generally indicates poor fluidity.
Where [2] appears, read: fumarate salt solid form of compound 1.

Turning to `Cn1cnc(Cn2c(=O)[nH]/c(=N\c3cc4cn(C)nc4cc3Cl)n(Cc3cc(F)c(F)cc3F)c2=O)n1` [Comparative Example 1, (6E)-6-[(6-chloro-2-methyl-2H-indazol-5-yl)imino]-3-[(1-methyl-1H-1,2,4-triazol-3-yl)methyl]-1-(2,4,5-trifluorobenzyl)-1,3,5-triazinane-2,4-dione, reference compound], for the setting “solid form of compound 1”, the Anti-caking property entry is “Poor” and the Fluidity entry is “Poor”. Under setting [1], the “Carr index (%)” value is on record as 42.1%.

Regarding `Cn1cnc(Cn2c(=O)[nH]/c(=N\c3cc4cn(C)nc4cc3Cl)n(Cc3cc(F)c(F)cc3F)c2=O)n1` [Comparative Example 2, (6E)-6-[(6-chloro-2-methyl-2H-indazol-5-yl)imino]-3-[(1-methyl-1H-1,2,4-triazol-3-yl)methyl]-1-(2,4,5-trifluorobenzyl)-1,3,5-triazinane-2,4-dione, reference compound], for the setting “solid form of compound 1”, the Anti-caking property result is given as “Poor” and the Fluidity result is “Poor”. The “Carr index (%)” value under setting [1] worked out at 39.4%.

Regarding `Cn1cnc(Cn2c(=O)[nH]/c(=N\c3cc4cn(C)nc4cc3Cl)n(Cc3cc(F)c(F)cc3F)c2=O)n1.O=C(O)/C=C/C(=O)O` [Example 28, (6E)-6-[(6-chloro-2-methyl-2H-indazol-5-yl)imino]-3-[(1-methyl-1H-1,2,4-triazol-3-yl)methyl]-1-(2,4,5-trifluorobenzyl)-1,3,5-triazinane-2,4-dione fumarate salt], under setting [2], the Anti-caking property entry is recorded as “Good”, the “Carr index (%)” value turned out to be 11.3% and the Fluidity entry is reported as “Good”.

Consider `Cn1cnc(Cn2c(=O)[nH]/c(=N\c3cc4cn(C)nc4cc3Cl)n(Cc3cc(F)c(F)cc3F)c2=O)n1` [Example 3, (6E)-6-[(6-chloro-2-methyl-2H-indazol-5-yl)imino]-3-[(1-methyl-1H-1,2,4-triazol-3-yl)methyl]-1-(2,4,5-trifluorobenzyl)-1,3,5-triazinane-2,4-dione], for which, under “solid form of compound 1”, the Anti-caking property entry is on record as “Less good” and the Fluidity result is “Good”. Besides, under setting [1], the “Carr index (%)” value came to 18.7%.

As to `Cn1cnc(Cn2c(=O)[nH]/c(=N\c3cc4cn(C)nc4cc3Cl)n(Cc3cc(F)c(F)cc3F)c2=O)n1` [Example 4, (6E)-6-[(6-chloro-2-methyl-2H-indazol-5-yl)imino]-3-[(1-methyl-1H-1,2,4-triazol-3-yl)methyl]-1-(2,4,5-trifluorobenzyl)-1,3,5-triazinane-2,4-dione], under “solid form of compound 1”, the Anti-caking property entry is on record as “Less good” and the Fluidity entry is “Good”. Also, under setting [1], the “Carr index (%)” value stood at 19.4%.

`Cn1cnc(Cn2c(=O)[nH]/c(=N\c3cc4cn(C)nc4cc3Cl)n(Cc3cc(F)c(F)cc3F)c2=O)n1` [Example 2, (6E)-6-[(6-chloro-2-methyl-2H-indazol-5-yl)imino]-3-[(1-methyl-1H-1,2,4-triazol-3-yl)methyl]-1-(2,4,5-trifluorobenzyl)-1,3,5-triazinane-2,4-dione]: for the setting “solid form of compound 1”, the Anti-caking property entry was “Less good” and the Fluidity entry is “Good”. Further, the “Carr index (%)” value under setting [1] came out at 20.7%.

In the case of `Cn1cnc(Cn2c(=O)[nH]/c(=N\c3cc4cn(C)nc4cc3Cl)n(Cc3cc(F)c(F)cc3F)c2=O)n1` [Comparative Example 3, (6E)-6-[(6-chloro-2-methyl-2H-indazol-5-yl)imino]-3-[(1-methyl-1H-1,2,4-triazol-3-yl)methyl]-1-(2,4,5-trifluorobenzyl)-1,3,5-triazinane-2,4-dione, reference compound], under setting [2], the Anti-caking property entry was “poor and Poor”; the “Carr index (%)” value was found to be 36.1%; the Fluidity result was “poor and Poor”.

On to `Cn1cnc(Cn2c(=O)[nH]/c(=N\c3cc4cn(C)nc4cc3Cl)n(Cc3cc(F)c(F)cc3F)c2=O)n1` [Example 7, (6E)-6-[(6-chloro-2-methyl-2H-indazol-5-yl)imino]-3-[(1-methyl-1H-1,2,4-triazol-3-yl)methyl]-1-(2,4,5-trifluorobenzyl)-1,3,5-triazinane-2,4-dione], for which, for the setting “solid form of compound 1”, the Anti-caking property result was “Less good” and the Fluidity result is given as “Good”. Moreover, the “Carr index (%)” value under setting [1] worked out at 17.1%.

For the compound `Cn1cnc(Cn2c(=O)[nH]/c(=N\c3cc4cn(C)nc4cc3Cl)n(Cc3cc(F)c(F)cc3F)c2=O)n1` [Example 9, (6E)-6-[(6-chloro-2-methyl-2H-indazol-5-yl)imino]-3-[(1-methyl-1H-1,2,4-triazol-3-yl)methyl]-1-(2,4,5-trifluorobenzyl)-1,3,5-triazinane-2,4-dione], where the note is “solid form of compound 1”, the Anti-caking property entry is given as “Good” and the Fluidity entry is recorded as “Good”. Besides, the “Carr index (%)” value under setting [1] came out at 12.6%.

Take `Cn1cnc(Cn2c(=O)[nH]/c(=N\c3cc4cn(C)nc4cc3Cl)n(Cc3cc(F)c(F)cc3F)c2=O)n1` [Example 1, (6E)-6-[(6-chloro-2-methyl-2H-indazol-5-yl)imino]-3-[(1-methyl-1H-1,2,4-triazol-3-yl)methyl]-1-(2,4,5-trifluorobenzyl)-1,3,5-triazinane-2,4-dione]: under “solid form of compound 1”, the Anti-caking property entry is “Less good” and the Fluidity result is given as “Good”. In addition, under setting [1], the “Carr index (%)” value turned out to be 21.4%.

For the compound `Cn1cnc(Cn2c(=O)[nH]/c(=N\c3cc4cn(C)nc4cc3Cl)n(Cc3cc(F)c(F)cc3F)c2=O)n1` [Example 6, (6E)-6-[(6-chloro-2-methyl-2H-indazol-5-yl)imino]-3-[(1-methyl-1H-1,2,4-triazol-3-yl)methyl]-1-(2,4,5-trifluorobenzyl)-1,3,5-triazinane-2,4-dione], under “solid form of compound 1”, the Anti-caking property entry is on record as “Less good” and the Fluidity entry is recorded as “Good”. Also, the “Carr index (%)” value under setting [1] turned out to be 18.5%.

Consider `Cn1cnc(Cn2c(=O)[nH]/c(=N\c3cc4cn(C)nc4cc3Cl)n(Cc3cc(F)c(F)cc3F)c2=O)n1` [Example 10, (6E)-6-[(6-chloro-2-methyl-2H-indazol-5-yl)imino]-3-[(1-methyl-1H-1,2,4-triazol-3-yl)methyl]-1-(2,4,5-trifluorobenzyl)-1,3,5-triazinane-2,4-dione], for which, under “solid form of compound 1”, the Anti-caking property result was “Good” and the Fluidity result is given as “Good”. Moreover, under setting [1], the “Carr index (%)” value was determined as 13.4%.

For the compound `Cn1cnc(Cn2c(=O)[nH]/c(=N\c3cc4cn(C)nc4cc3Cl)n(Cc3cc(F)c(F)cc3F)c2=O)n1` [Example 29, (6E)-6-[(6-chloro-2-methyl-2H-indazol-5-yl)imino]-3-[(1-methyl-1H-1,2,4-triazol-3-yl)methyl]-1-(2,4,5-trifluorobenzyl)-1,3,5-triazinane-2,4-dione], under setting [2], the Anti-caking property result is “Less good”, the “Carr index (%)” value amounted to 12.1% and the Fluidity entry is on record as “Good”.

For the compound `Cn1cnc(Cn2c(=O)[nH]/c(=N\c3cc4cn(C)nc4cc3Cl)n(Cc3cc(F)c(F)cc3F)c2=O)n1` [Example 12, (6E)-6-[(6-chloro-2-methyl-2H-indazol-5-yl)imino]-3-[(1-methyl-1H-1,2,4-triazol-3-yl)methyl]-1-(2,4,5-trifluorobenzyl)-1,3,5-triazinane-2,4-dione], under “solid form of compound 1”, the Anti-caking property entry is “Good” and the Fluidity entry is given as “Good”. Moreover, the “Carr index (%)” value under setting [1] was 15.1%.

Regarding `Cn1cnc(Cn2c(=O)[nH]/c(=N\c3cc4cn(C)nc4cc3Cl)n(Cc3cc(F)c(F)cc3F)c2=O)n1` [Example 11, (6E)-6-[(6-chloro-2-methyl-2H-indazol-5-yl)imino]-3-[(1-methyl-1H-1,2,4-triazol-3-yl)methyl]-1-(2,4,5-trifluorobenzyl)-1,3,5-triazinane-2,4-dione], under “solid form of compound 1”, the Anti-caking property result is reported as “Good” and the Fluidity entry is “Good”. Also, the “Carr index (%)” value under setting [1] was found to be 14.1%.

Consider `Cn1cnc(Cn2c(=O)[nH]/c(=N\c3cc4cn(C)nc4cc3Cl)n(Cc3cc(F)c(F)cc3F)c2=O)n1` [Example 8, (6E)-6-[(6-chloro-2-methyl-2H-indazol-5-yl)imino]-3-[(1-methyl-1H-1,2,4-triazol-3-yl)methyl]-1-(2,4,5-trifluorobenzyl)-1,3,5-triazinane-2,4-dione], for which, for the setting “solid form of compound 1”, the Anti-caking property entry is recorded as “Less good” and the Fluidity entry is given as “Good”. Besides, under setting [1], the “Carr index (%)” value was 21.2%.

As to `Cn1cnc(Cn2c(=O)[nH]/c(=N\c3cc4cn(C)nc4cc3Cl)n(Cc3cc(F)c(F)cc3F)c2=O)n1` [Example 5, (6E)-6-[(6-chloro-2-methyl-2H-indazol-5-yl)imino]-3-[(1-methyl-1H-1,2,4-triazol-3-yl)methyl]-1-(2,4,5-trifluorobenzyl)-1,3,5-triazinane-2,4-dione], under “solid form of compound 1”, the Anti-caking property entry is given as “Less good” and the Fluidity result is “Good”. Also, under setting [1], the “Carr index (%)” value is given as 18.8%.
